# Reference: publication PMC5004293, “Characterization of FRM-36143 as a new γ-secretase modulator for the potential treatment of familial Alzheimer’s disease” (Alzheimer's Research & Therapy, 2016)
# Assays:
# Notch processing = test: Notch reporter assay (HeLa 6xCBF1-Luc, NotchΔE); assay type: cell-based, human; conditions: Homo sapiens, overnight
# Protocol: The wild-type CBF1 binding element was cloned in front of the SV40 promoter-driven luciferase reporter construct of pGL3pro (Promega, Madison, WI, USA) using the following oligonucleotides: • CBF1 Fw (5’→3’): […] • CBF1 Rv (5’→3’): […]
# Oligonucleotides were phosphorylated using T4 polynucleotide kinase and annealed (by heating to 90 °C and cooling to room temperature in a buffer containing 0.1 M NaCl). Plasmid pGL3pro was cleaved with BglII and dephosphorylated using alkaline phosphatase. The oligonucleotide pair was then ligated using T4 ligase with the linearized plasmid DNA. A clone containing 6 copies of the CBF1 element in front of the SV40 promoter was chosen. The 6xCBF1-RE/SV40 promoter was excised from pGL3 using XhoI and HindIII, and the fragment transferred to the pGL4.17 [luc2/Neo] vector (Promega) was opened with the same restriction enzymes.
# The full length human Notch in plasmid pCMV6-XL5 (Origene, Rockville, MD, USA) was used to amplify a truncated form of Notch (NotchΔE) containing the 20-amino-acid (a.a.) signal sequence followed by 5 a.a. […]
# HeLa cells stably transfected with the 6xCBF1-Luc reporter were transiently transfected with the NotchΔE construct (4 μg DNA/10^6 cells) using Lipofectamine 2000 (Thermo Fisher, Waltham, MA, USA) in 6-well plates. […] Chemiluminescence was then read on an EnVision plate reader (Perkin Elmer).
# [1] = Compound exposure in mice (LC-MS/MS, brain tissue binding); assay type: in vivo; conditions: mouse
# Protocol: (§1) Mice and rats were maintained on 12/12 h light/dark cycle with food available ad libitum. Drug treatment was prepared in a vehicle of 1 % carboxymethylcellulose (CMC):Tween80 (99.5:0.5). Twelve-week-old wild-type male mice (129S6, Taconic Biosciences, Hudson, NY, USA) or rats (Wistar, Charles River Laboratories) were administered compound p.o. without prior fasting and euthanized by CO2 asphyxiation at specified times post-dosing. After extraction of the brain, the olfactory bulb and hindbrain were removed and the cerebral hemispheres separated (mice) or cut in 4 pieces (rats). The cerebellum was removed for bioanalysis of the compound. CSF was collected from the cisterna magna and blood from a cardiac puncture.
# Cerebellums were homogenized in a Mini-BeadBeater (Biospec Products, Inc., Bartlesville, OK, USA). Brain samples, plasma, and CSF were prepared for LC-MS/MS by precipitating proteins with acetonitrile and vacuum filtration in the presence of an internal standard. Standards were prepared in the corresponding matrix. FRM-36143 was resolved by HPLC (Shimadzu) using a reverse-phase C18 Kinetex column (30X2.1 mM; Phenomenex, Torrance, CA, USA). Following separation, the column effluent was introduced into a triple quadrupole mass spectrometer (API 5500, Applied Biosystems), optimized for detection of FRM-36143 and using multiple reaction monitoring with mass transition of 390.3 > 215.2.
# The unbound fraction in brain homogenate (fu,b) was determined in triplicate in the Rapid Equilibrium Dialysis device (8000 Da molecular weight cut-off membrane, Thermo Scientific/Pierce Biotechnology, Rockford, IL, USA). Briefly, FRM-36143 stock solution (0.1 mg/mL in acetonitrile) was added to fresh mouse brain homogenate (1:4 dilution with PBS) to achieve a final concentration of 1 μg/mL. Aliquots of the brain homogenate (300 μL) were loaded into the donor side, and 500 μL of PBS into the receiver side of the dialyzer. […]
# [2] = Compound exposure in rats (LC-MS/MS, brain tissue binding); assay type: in vivo; conditions: Wistar, oral, rat, 30 mg/kg, 6 h post-dose
# Protocol: as §1
# Cerebellums were homogenized in a Mini-BeadBeater (Biospec Products, Inc., Bartlesville, OK, USA). Brain samples, plasma, and CSF were prepared for LC-MS/MS by precipitating proteins with acetonitrile and vacuum filtration in the presence of an internal standard. Standards were prepared in the corresponding matrix. FRM-36143 was resolved by HPLC (Shimadzu) using a reverse-phase C18 Kinetex column (30X2.1 mM; Phenomenex, Torrance, CA, USA). […]
# The unbound fraction in brain homogenate (fu,b) was determined in triplicate in the Rapid Equilibrium Dialysis device (8000 Da molecular weight cut-off membrane, Thermo Scientific/Pierce Biotechnology, Rockford, IL, USA). […]
compound,measurement,setting,value
"COc1nc(C2=NOC[C@H](c3cc4ccccc4o3)N2)ccc1-n1cnc(C)c1 [FRM-36143, (R)-5-(benzofuran-2-yl)-3-(6-methoxy-5-(4-methyl-1H-imidazol-1-yl)pyridin-2-yl)-5,6-dihydro-4H-1,2,4-oxadiazine]",IC50,Notch processing,> 10 µM
same,concentration at 6 h,"[1]; male, 129S6, brain (unbound), 30 mg/kg oral, 6 h",427 nM
same,Unbound brain Cmax,[1]; 10 mg/kg oral,235 nM
same,Exposure or efficacy at higher dose,"[1]; 90 mg/kg vs 30 mg/kg, data not shown",did not achieve significantly higher exposure or efficacy
same,concentration at 6 h,"[2]; CSF, read-out: CSF concentration",122 nM
same,concentration at 6 h,"[2]; brain (unbound), calculated using brain tissue binding, read-out: Unbound brain exposure",156 nM
